Laboratory results published in patent US20170354659A1, “COMPOSITIONS CONTAINING DEFINED CAFFEINE AND THEOBROMINE LEVELS WITH ENHANCED COGNITIVE PROPERTIES” (The Hershey Company, priority 2014, published 2017).

Legend:
[1] = tested on: regions of the brain associated with caffeine cravings; assay: fMRI brain blood flow/connectivity analysis; format: in vivo, human; conditions: subjects with a caffeine habit, FIG. 1 and 3
Text: Measurement or detection of changes in the brain can be done using functional MRI (fMRI) and functional brain network analyses as known in the art. The following is an exemplary study using known techniques based upon fMRI scanning of human brains.
These examples represent an intervention study (number of subjects=24) with a randomized controlled, double-blind, placebo-controlled crossover design. The study is designed to ensure completion of all possibilities in the order of delivering the test samples, i.e. each subject is administered each of the possible test beverages in different order. An approximately equal number of men and women should be included and ethnic groups and minorities should also be included. For initial baseline testing, subjects undergo 16 hours of caffeine and chocolate withdrawal for a baseline testing and then participate in four separate brain scanning visits over 5-10 weeks. […] As determined from a medical screening session, any subjects with active neurological dysfunction (such as a major Axis I psychopathology, Alzheimer's disease, Parkinson's disease, prior history of stroke, epilepsy, or serious CNS trauma, ADHD, migraines, hypertension, diabetes, peripheral vascular disease, or taking vasoactive medications, such as antihypertensive medications) are excluded from the study. […]

[2] = tested on: brain blood flow; conditions: difference between caffeine and theobromine, 6 participants; cited from earlier work

Structure (SMILES) | change in blood flow/connectivity by fMRI [1] | brain blood flow difference [2] [ml/100 gm tissue/min]
Cn1c(=O)c2c(ncn2C)n(C)c1=O [Caffeine, caffeine] | typical reduction in blood flow/connectivity | 
Cn1cnc2c1c(=O)[nH]c(=O)n2C [theobromine] |  | 5.03
